In paper PMC11106745 (ACS Chemical Biology, 2024):
Several values for one entry are separate records, joined by “and”; a condition that tells them apart may be missing. Equal entries are not always repeated. Where two headings read alike, the source gives them in different places.

Columns and labels:
[1] = molecular target: T1, MacroD1 (Homo sapiens, UniProt Q9BQ69); test: IC50 curves of binding to MacroD1 (Figure S2); conditions: Figure S2, fitted
T1 construct: made in house
T1 sequence (Q9BQ69 1-325): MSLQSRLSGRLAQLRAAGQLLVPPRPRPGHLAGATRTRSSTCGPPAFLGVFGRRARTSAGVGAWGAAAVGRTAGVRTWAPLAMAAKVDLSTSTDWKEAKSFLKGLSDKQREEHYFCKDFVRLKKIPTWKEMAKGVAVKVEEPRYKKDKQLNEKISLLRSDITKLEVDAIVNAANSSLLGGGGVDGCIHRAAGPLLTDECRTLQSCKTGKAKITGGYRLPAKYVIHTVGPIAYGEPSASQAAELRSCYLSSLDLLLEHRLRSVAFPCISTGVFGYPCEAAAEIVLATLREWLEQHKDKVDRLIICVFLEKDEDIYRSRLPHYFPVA

[2] = molecular target: T2, SARS-CoV-2 Mac1 (Severe acute respiratory syndrome coronavirus 2, UniProt P0DTD1); test: biochemical; type: binding
[3] = molecular target: T3, VEEV Mac (Venezuelan equine encephalitis virus, UniProt P27282); test: biochemical; type: binding
T3 sequence (P27282 1330-1489 limits assumed): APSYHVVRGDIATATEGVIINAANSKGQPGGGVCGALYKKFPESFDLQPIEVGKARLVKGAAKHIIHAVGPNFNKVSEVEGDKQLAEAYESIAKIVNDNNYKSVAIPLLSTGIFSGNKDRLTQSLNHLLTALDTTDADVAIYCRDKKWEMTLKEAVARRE

[4] = molecular target: T4, CHIKV Mac (Chikungunya virus, UniProt Q8JUX6); test: biochemical; type: binding
T4 sequence (Q8JUX6 1334-1493 limits assumed): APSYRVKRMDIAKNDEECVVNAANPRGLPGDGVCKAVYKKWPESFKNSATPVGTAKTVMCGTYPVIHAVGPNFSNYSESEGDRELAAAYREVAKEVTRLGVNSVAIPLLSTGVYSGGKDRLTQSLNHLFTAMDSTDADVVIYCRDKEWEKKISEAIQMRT

[5] = molecular target: T5, MERS-CoV Mac1 (Middle East respiratory syndrome-related coronavirus, UniProt K9N7C7); test: biochemical; type: binding
T5 sequence (K9N7C7 1110-1276 limits assumed): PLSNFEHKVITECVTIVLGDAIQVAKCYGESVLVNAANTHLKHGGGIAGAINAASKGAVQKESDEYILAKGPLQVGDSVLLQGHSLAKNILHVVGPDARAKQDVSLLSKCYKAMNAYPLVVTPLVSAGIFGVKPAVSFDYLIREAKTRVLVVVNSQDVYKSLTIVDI

[6] = molecular target: T6, MacroD2 (Homo sapiens, UniProt A1Z1Q3); test: IC50 curves of binding to MacroD2 (Figure S2); conditions: Figure S2, fitted
T6 construct: made in house
T6 sequence (A1Z1Q3 1-425): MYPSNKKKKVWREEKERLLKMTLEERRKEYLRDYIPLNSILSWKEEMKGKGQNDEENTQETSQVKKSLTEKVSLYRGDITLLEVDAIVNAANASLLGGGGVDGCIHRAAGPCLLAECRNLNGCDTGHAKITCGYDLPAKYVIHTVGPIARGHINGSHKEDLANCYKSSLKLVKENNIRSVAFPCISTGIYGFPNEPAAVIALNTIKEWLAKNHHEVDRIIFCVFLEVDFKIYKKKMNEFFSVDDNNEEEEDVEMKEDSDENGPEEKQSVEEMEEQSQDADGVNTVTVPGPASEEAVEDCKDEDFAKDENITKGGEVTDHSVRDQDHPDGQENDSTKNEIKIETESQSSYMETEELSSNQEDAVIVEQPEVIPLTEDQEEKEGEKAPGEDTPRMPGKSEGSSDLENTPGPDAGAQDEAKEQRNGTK

[7] = molecular target: T3, VEEV Mac; test: biochemical; type: binding; remark: listed apart in the source
[8] = molecular target: T5, MERS-CoV Mac1; test: biochemical; type: binding; remark: listed apart in the source
[9] = molecular target: T2, SARS-CoV-2 Mac1; test: biochemical; type: binding; remark: listed apart in the source
[10] = molecular target: T4, CHIKV Mac; test: biochemical; type: binding; remark: listed apart in the source
[11] = molecular target: T2, SARS-CoV-2 Mac1; conditions: cited from earlier work
[12] = molecular target: T3, VEEV Mac; test: biochemical; type: binding; conditions: for koff: read-out: kdis
[13] = molecular target: T5, MERS-CoV Mac1; test: biochemical; type: binding; conditions: for koff: read-out: kdis
[14] = molecular target: T2, SARS-CoV-2 Mac1; test: biochemical; type: binding; conditions: for koff: read-out: kdis
[15] = molecular target: T4, CHIKV Mac; test: biochemical; type: binding; conditions: for koff: read-out: kdis
[16] = molecular target: T2, SARS-CoV-2 Mac1; conditions: cited from earlier work; remark: listed apart in the source
[17] = molecular target: T2, SARS-CoV-2 Mac1; conditions: cited from earlier work; remark: listed apart in the source

SMILES: N#CC1(c2ccc3c(N)ncnn23)OC(COP(=O)(O)OP(=O)(O)OCC2OC(O)C(O)C2O)C(O)C1O (stereo not shown) [NDPr]
- IC50 [1]: > 10 µM
- IC50 [2]: 800 nM and 170 nM and 290 nM
- IC50 [3]: 510 nM
- IC50 [4]: 0.92 µM
- IC50 [5]: 2900 nM
- IC50 [6]: > 10 µM

SMILES: Nc1ncnc2c1ncn2[C@@H]1O[C@H](COP(=O)(O)OP(=O)(O)OC[C@H]2O[C@H](Oc3ccccc3)[C@H](O)[C@@H]2O)[C@@H](O)[C@H]1O [Ph-ADPr]
- IC50 [2]: 1900 nM and 730 nM and 1500 nM
- IC50 [3]: 7300 nM
- IC50 [4]: 126 µM
- IC50 [5]: 1800 nM

SMILES: N#C[C@@]1(c2ccc3c(N)ncnn23)O[C@H](COP(=O)(O)OP(=O)(O)OC[C@H]2O[C@H](Oc3ccccc3)[C@H](O)[C@@H]2O)[C@@H](O)[C@H]1O [Ph-NDPr]
- fold better IC50 than ADPr [2]: 6000 fold
- fold better IC50 than NDPr [2]: 100 fold
- fold better IC50 than Ph-ADPr [2]: 500 fold
- IC50 [3]: 220 nM
- IC50 [4]: 9.3 µM
- IC50 [5]: 460 nM

SMILES: CN(C)c1ccc2c(c1)Oc1cc(N(C)C)ccc1C21OC(=O)c2cc(C(=O)NCCCCCCNC(=O)CCc3cn([C@H]4O[C@H](COP(=O)(O)OP(=O)(O)OC[C@H]5O[C@@H](n6cnc7c(N)ncnc76)[C@H](O)[C@@H]5O)[C@@H](O)[C@H]4O)nn3)ccc21 [TAMRA-ADPr, reference compound]
- Kd [7]: 1700 nM
- Kd [8]: 830 nM
- Kd ([9]; Kd): 2100 nM
- Kd [10]: 7200 nM

SMILES: CN(C)c1ccc2c(c1)Oc1cc(N(C)C)ccc1C21OC(=O)c2cc(C(=O)NCCCCCCNC(=O)CCc3cn([C@H]4O[C@H](COP(=O)(O)OP(=O)(O)OC[C@H]5O[C@@](C#N)(c6ccc7c(N)ncnn67)[C@H](O)[C@@H]5O)[C@@H](O)[C@H]4O)nn3)ccc21 [TAMRA-NDPr]
- Kd [7]: 39 nM
- Kd [8]: 130 nM
- fold more potent than TAMRA-ADPr [9]: over 100 fold
- Kd ([9]; Kd): 15 nM
- fold affinity improvement over TAMRA-ADPr [10]: more than 30 fold
- Kd [10]: 208 nM and 210 nM

SMILES: CN(C)c1ccc2c(c1)Oc1cc(N(C)C)ccc1C21OC(=O)c2cc(C(=O)NCCCCCCNC(=O)CCc3cn(Cc4ccc(O[C@H]5O[C@H](COP(=O)(O)OP(=O)(O)OC[C@H]6O[C@@](C#N)(c7ccc8c(N)ncnn78)[C@H](O)[C@@H]6O)[C@@H](O)[C@H]5O)cc4)nn3)ccc21 [TAMRA-Ph-NDPr]
- Kd [7]: 10 nM
- Kd [8]: 11 nM
- fold more potent than TAMRA-ADPr [9]: over 100 fold
- Kd ([9]; Calculated Kd): 2.3 nM
- Kd ([9]; Kd): 5.3 nM
- Kd [10]: 810 nM

SMILES: Nc1ncnc2c1ncn2C1OC(COP(=O)(O)OP(=O)(O)OCC2OC(Oc3ccc4c(C(F)(F)F)cc(=O)oc4c3)C(O)C2O)C(O)C1O (stereo not shown) [TFMU-ADPr]
- IC50 [11]: 590 nM
- fold more potent than ADPr [11]: > 20 fold

SMILES: Nc1ncnc2c1ncn2[C@@H]1O[C@H](COP(=O)(O)OP(=O)(O)OC[C@H]2O[C@H](n3cc(COCCOCCOCCOCCNC(=O)CCCC[C@@H]4SC[C@@H]5NC(=O)N[C@@H]54)nn3)[C@H](O)[C@@H]2O)[C@@H](O)[C@H]1O [biotin-ADPr]
- kon [12]: 140000 ± 8000 M⁻¹ s⁻¹
- koff [12]: 0.79 ± 0.04 s⁻¹
- kon [13]: 320000 ± 10000 M⁻¹ s⁻¹
- Kd [13]: 2100 ± 100 nM
- koff [13]: 0.7 ± 0.03 s⁻¹
- IC50 [2]: 3500 nM
- IC50 [4]: 22.2 µM
- IC50 [5]: 6800 nM
- Kd [14]: 19600 nM
- kon [14]: 53000 ± 3000 M⁻¹ s⁻¹
- koff [14]: 1 ± 0.05 s⁻¹
- kon [15]: 120000 ± 3000 M⁻¹ s⁻¹
- Kd [15]: 5300 ± 200 nM
- koff [15]: 0.65 ± 0.02 s⁻¹

SMILES: N#C[C@@]1(c2ccc3c(N)ncnn23)O[C@H](COP(=O)(O)OP(=O)(O)OC[C@H]2O[C@H](n3cc(COCCOCCOCCOCCNC(=O)CCCC[C@@H]4SC[C@@H]5NC(=O)N[C@@H]54)nn3)[C@H](O)[C@@H]2O)[C@@H](O)[C@H]1O [biotin-NDPr]
- kon [12]: 580000 ± 6000 M⁻¹ s⁻¹
- koff [12]: 0.076 ± 0.0008 s⁻¹
- kon [13]: 1.3e+06 ± 50000 M⁻¹ s⁻¹
- Kd [13]: 210 ± 10 nM
- koff [13]: 0.27 ± 0.01 s⁻¹
- IC50 [2]: 57 nM
- IC50 [4]: 0.95 µM
- IC50 [5]: 1200 nM
- Kd [14]: 280 ± 10 nM
- fold more potent than biotin-ADPr based on Kd [14]: ~70 fold
- kon [14]: 310000 ± 5000 M⁻¹ s⁻¹
- koff [14]: 0.085 ± 0.001 s⁻¹
- fold stronger than biotin-ADPr [15]: ~15 fold
- kon [15]: 180000 ± 4000 M⁻¹ s⁻¹
- Kd [15]: 331 nM and 330 nM
- koff [15]: 0.06 ± 0.0009 s⁻¹

SMILES: Nc1ncnc2c1ncn2[C@@H]1O[C@H](COP(=O)(O)OP(=O)(O)OC[C@H]2O[C@H](Oc3ccc(Cn4cc(COCCOCCOCCOCCNC(=O)CCCC[C@@H]5SC[C@@H]6NC(=O)N[C@@H]65)nn4)cc3)[C@H](O)[C@@H]2O)[C@@H](O)[C@H]1O [biotin-Ph-ADPr]
- fold decrease in Kd compared to biotin-ADPr [12]: 30 fold
- kon [12]: 520000 ± 6000 M⁻¹ s⁻¹
- koff [12]: 0.083 ± 0.0008 s⁻¹
- fold decrease in Kd compared to biotin-ADPr [13]: 20 fold
- kon [13]: 1.1e+06 ± 30000 M⁻¹ s⁻¹
- Kd [13]: 100 ± 4 nM
- koff [13]: 0.11 ± 0.003 s⁻¹
- IC50 [2]: 130 nM
- IC50 [4]: > 10 µM
- IC50 [5]: 310 nM
- Kd [14]: 420 ± 10 nM
- fold more potent than biotin-ADPr based on Kd [14]: ~50 fold
- kon [14]: 270000 ± 5000 M⁻¹ s⁻¹
- koff [14]: 0.11 ± 0.002 s⁻¹
- kon [15]: 19000 ± 500 M⁻¹ s⁻¹
- Kd [15]: 6200 ± 200 nM
- koff [15]: 0.12 ± 0.002 s⁻¹

SMILES: N#C[C@@]1(c2ccc3c(N)ncnn23)O[C@H](COP(=O)(O)OP(=O)(O)OC[C@H]2O[C@H](Oc3ccc(Cn4cc(COCCOCCOCCOCCNC(=O)CCCC[C@@H]5SC[C@@H]6NC(=O)N[C@@H]65)nn4)cc3)[C@H](O)[C@@H]2O)[C@@H](O)[C@H]1O [biotin-Ph-NDPr]
- fold decrease in Kd compared to biotin-ADPr [12]: 400 fold
- kon [12]: 820000 ± 7000 M⁻¹ s⁻¹
- koff [12]: 0.014 ± 6e-05 s⁻¹
- fold decrease in Kd compared to biotin-ADPr [13]: ~100 fold
- kon [13]: 1.8e+06 ± 10000 M⁻¹ s⁻¹
- Kd [13]: 17.2 nM and 17 nM
- koff [13]: 0.031 ± 0.0002 s⁻¹
- IC50 [2]: 11 nM
- IC50 [4]: 0.86 µM
- IC50 [5]: 100 nM
- Kd [14]: 24 nM
- fold more potent than biotin-ADPr based on Kd [14]: ~1000 fold
- kdis fold smaller than that of biotin-ADPr [14]: more than 100 fold
- kon [14]: 300000 ± 3000 M⁻¹ s⁻¹
- koff [14]: 0.0071 s⁻¹
- kon [15]: 190000 ± 6000 M⁻¹ s⁻¹
- Kd [15]: 570 ± 20 nM
- koff [15]: 0.11 ± 0.003 s⁻¹

SMILES: O=C(O)[C@H](Cc1c[nH]c2ccccc12)Nc1ncnc2[nH]ccc12 [compound 15c]
- IC50 [16]: 6.1 µM

SMILES: COC(=O)c1c(NC(=O)[C@@H]2CCC[C@@H](C(=O)O)C2)sc2c1CCCCCC2 [compound 27]
- IC50 [17]: 2100 nM

SMILES: Nc1ncnc2c1ncn2C1OC(COP(=O)(O)OP(=O)(O)OCC2OC(Oc3ccc([N+](=O)[O-])cc3)C(O)C2O)C(O)C1O (stereo not shown) [pNP-ADPr]
- IC50 [11]: 370 nM
- fold more potent than ADPr [11]: > 20 fold
